Reference: PMC12405493, “Selective ubiquitination of drug-like small molecules by the ubiquitin ligase HUWE1” (Nature Communications, 2025)

Experiments:
HUWE1^HECT = biological target: T1, HUWE1^HECT (Homo sapiens, UniProt Q7Z6Z7); assay: HDX-MS of HUWE1^HECT with inhibitors; type: binding; conditions: 10-fold molar excess of inhibitor
T1 construct: the isolated HECT domain of HUWE1 (HUWE1^HECT); made in house
T1 sequence (Q7Z6Z7 4038-4374 limits assumed): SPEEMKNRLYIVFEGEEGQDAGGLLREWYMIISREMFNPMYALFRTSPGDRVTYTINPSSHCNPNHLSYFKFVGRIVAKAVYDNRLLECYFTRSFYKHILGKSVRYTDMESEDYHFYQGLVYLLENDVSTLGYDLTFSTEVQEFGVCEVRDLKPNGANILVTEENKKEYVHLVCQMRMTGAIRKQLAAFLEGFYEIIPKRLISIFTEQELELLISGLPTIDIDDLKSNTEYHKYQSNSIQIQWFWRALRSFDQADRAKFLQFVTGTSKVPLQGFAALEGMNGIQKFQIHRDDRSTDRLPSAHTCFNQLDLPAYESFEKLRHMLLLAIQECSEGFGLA
Description: (§1) Two experiments were performed: 50 μM HUWE1^HECT (1) or HUWE1^HECT-Ub conjugate (2) were incubated with 500 μM of BI8626 or BI8622 for 1 h on ice prior HDX-MS. Individual HDX reactions were generated with a 2-arm autosampler (LEAP Technologies) by mixing 6.5 μL sample with 58.5 μL of HDX buffer (20 mM HEPES pH 8.0, 150 mM NaCl, 5 mM DTT) prepared with 99.9% D2O, incubation at 25 °C for various times, before quenching by mixing 55 μL with an equal volume of 400 mM KH2PO4/H3PO4 (pH 2.2) and 2 M guanidine-HCl (precooled at 1 °C). Non-deuterated samples were generated analogously by 10-fold dilution with H2O-based buffer. […] For each protein state and time-point, three individual HDX reactions were measured.
(§2) Peptide identification and HDX analysis was performed with ProteinLynx Global SERVER v.3.0.1 (PLGS; Waters) and DynamX v.3.0 (Waters), as described previously. […] Only peptides with an intensity >10,000 counts, ≤ 30 residues, ≥ 2 products with ≥ 0.05 products/residue, ≤ 25 ppm mass error and retention time tolerance of 0.5 min were analysed. […] The maximal deuterium uptake of a given peptide was calculated by the number of residues minus one for the N-terminal residue and minus the number of prolines. […]

[1] = biological target: T2, HUWE1-HECT-Ub vinylthioether-linked conjugate (Homo sapiens, UniProt Q7Z6Z7); assay: HDX-MS of HUWE1^HECT~Ub proxy with inhibitors; type: binding; conditions: 10-fold molar excess of inhibitor
T2 construct: The preparation of the vinylthioether-linked HUWE1^HECT-Ub complex was also previously described; made in house; host or cells: bacteria (components)
Description: as §1, §2

[2] = set-up: method as in PMID 25253726; conditions: cited from earlier work

Cc1c(C(=O)Nc2ccc(CN)cc2)ncnc1N1CCC(C#N)(c2ccccc2)CC1 [BI8622]
Binding to HUWE1^HECT by HDX-MS (HUWE1^HECT): did not provide evidence of binding
Binding to HUWE1^HECT~Ub proxy by HDX-MS [1]: did not provide evidence of binding
Pharmacokinetic properties [2]: do not allow for in vivo applications

NCc1cccc(CNc2ncnc3c(N4CCN(Cc5ccccc5)CC4)ncnc23)c1 [BI8626]
Binding to HUWE1^HECT by HDX-MS (HUWE1^HECT): did not provide evidence of binding
Binding to HUWE1^HECT~Ub proxy by HDX-MS [1]: did not provide evidence of binding
Pharmacokinetic properties [2]: do not allow for in vivo applications
